Experimental data reported in ChEMBL document CHEMBL4373738, “Search for new multi-target compounds against Alzheimer's disease among histamine H3 receptor ligands” (Eur J Med Chem, 2020).
Activity calls are given as the source filed them. No cut-off for these calls is given here.

Tests used:
[1] = molecular target: Cholinesterase (Equus caballus) (UniProt P81908); assay: Inhibition of equine serum BChE using butyrylthiocholine iodide as substrate at 10 uM preincubated with enzyme for 5 mins prior to substrate addition measured after 5 mins by Ellman's method relative to control
Cholinesterase (Equus caballus), sequence (P81908 whole entry): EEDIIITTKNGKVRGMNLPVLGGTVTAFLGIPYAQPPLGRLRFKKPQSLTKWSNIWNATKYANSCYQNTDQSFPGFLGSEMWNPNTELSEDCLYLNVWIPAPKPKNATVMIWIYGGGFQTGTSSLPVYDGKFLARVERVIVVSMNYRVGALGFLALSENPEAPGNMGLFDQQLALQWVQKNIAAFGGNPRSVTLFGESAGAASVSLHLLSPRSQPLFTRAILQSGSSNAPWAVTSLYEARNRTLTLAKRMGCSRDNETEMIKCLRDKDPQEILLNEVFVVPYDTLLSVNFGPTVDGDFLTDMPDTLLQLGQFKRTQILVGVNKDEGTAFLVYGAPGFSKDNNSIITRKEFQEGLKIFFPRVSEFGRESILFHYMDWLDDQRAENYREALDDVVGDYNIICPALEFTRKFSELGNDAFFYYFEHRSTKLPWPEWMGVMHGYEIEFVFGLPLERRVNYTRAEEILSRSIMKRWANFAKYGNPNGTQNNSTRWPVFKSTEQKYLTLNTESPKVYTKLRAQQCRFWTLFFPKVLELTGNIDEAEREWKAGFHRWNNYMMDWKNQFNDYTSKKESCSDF

[2] = molecular target: T1, Histamine H3 receptor (Homo sapiens, UniProt Q9Y5N1); assay: Displacement of [3H]-N-alpha-methylhistamine from human histamine H3 receptor stably expressed in HEK293 cell membrane after 90 mins
T1 sequence (Q9Y5N1 whole entry): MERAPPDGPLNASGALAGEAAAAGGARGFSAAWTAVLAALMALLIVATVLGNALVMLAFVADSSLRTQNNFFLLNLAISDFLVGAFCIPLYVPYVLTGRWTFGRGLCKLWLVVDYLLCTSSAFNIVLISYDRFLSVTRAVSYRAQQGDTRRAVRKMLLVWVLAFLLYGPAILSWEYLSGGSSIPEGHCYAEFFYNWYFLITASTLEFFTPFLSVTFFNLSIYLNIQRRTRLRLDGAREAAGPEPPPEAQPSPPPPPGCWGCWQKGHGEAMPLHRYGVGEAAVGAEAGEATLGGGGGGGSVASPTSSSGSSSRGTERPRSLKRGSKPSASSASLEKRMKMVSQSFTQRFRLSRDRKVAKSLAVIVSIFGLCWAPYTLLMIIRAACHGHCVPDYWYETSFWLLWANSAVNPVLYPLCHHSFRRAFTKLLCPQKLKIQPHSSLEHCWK

[3] = molecular target: T2, Acetylcholinesterase (Homo sapiens, UniProt P22303); assay: Inhibition of recombinant human AChE using acetylthiocholine iodide as substrate preincubated with enzyme for 5 mins prior to substrate addition measured after 5 mins by Ellman's method
T2 sequence (P22303 whole entry): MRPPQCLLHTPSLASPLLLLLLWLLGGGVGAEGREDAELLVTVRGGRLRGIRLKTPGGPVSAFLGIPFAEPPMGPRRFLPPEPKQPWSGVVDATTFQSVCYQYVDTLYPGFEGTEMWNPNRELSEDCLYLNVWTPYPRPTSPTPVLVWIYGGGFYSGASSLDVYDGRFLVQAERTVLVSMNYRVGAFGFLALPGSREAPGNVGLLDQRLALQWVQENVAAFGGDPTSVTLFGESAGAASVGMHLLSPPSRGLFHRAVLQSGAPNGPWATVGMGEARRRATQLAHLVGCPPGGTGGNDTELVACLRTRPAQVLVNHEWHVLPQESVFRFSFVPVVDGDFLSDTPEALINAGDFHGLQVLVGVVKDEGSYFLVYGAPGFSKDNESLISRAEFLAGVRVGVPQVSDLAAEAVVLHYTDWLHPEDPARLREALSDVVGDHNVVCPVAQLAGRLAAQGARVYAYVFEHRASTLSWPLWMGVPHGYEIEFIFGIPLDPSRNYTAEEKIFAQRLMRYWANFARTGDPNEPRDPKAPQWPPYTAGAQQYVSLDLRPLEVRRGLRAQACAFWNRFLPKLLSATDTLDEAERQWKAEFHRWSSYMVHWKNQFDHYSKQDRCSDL

[4] = molecular target: T3, Cholinesterase (Equus caballus, UniProt P81908); assay: Non-competitive inhibition of equine serum BChE using butyrylthiocholine iodide as substrate by Lineweaver-Burk plot analysis
T3 sequence (P81908 whole entry): as the sequence (P81908 whole entry) above

[5] = molecular target: T3, Cholinesterase
Description: Inhibition of equine serum BChE using butyrylthiocholine iodide as substrate preincubated with enzyme for 5 mins prior to substrate addition measured after 5 mins by Ellman's method

[6] = molecular target: T4, Acetylcholinesterase (Electrophorus electricus, UniProt O42275); assay: Inhibition of electric eel AChE using acetylthiocholine iodide as substrate preincubated with enzyme for 5 mins prior to substrate addition measured after 5 mins by Ellman's method
T4 sequence (O42275 whole entry): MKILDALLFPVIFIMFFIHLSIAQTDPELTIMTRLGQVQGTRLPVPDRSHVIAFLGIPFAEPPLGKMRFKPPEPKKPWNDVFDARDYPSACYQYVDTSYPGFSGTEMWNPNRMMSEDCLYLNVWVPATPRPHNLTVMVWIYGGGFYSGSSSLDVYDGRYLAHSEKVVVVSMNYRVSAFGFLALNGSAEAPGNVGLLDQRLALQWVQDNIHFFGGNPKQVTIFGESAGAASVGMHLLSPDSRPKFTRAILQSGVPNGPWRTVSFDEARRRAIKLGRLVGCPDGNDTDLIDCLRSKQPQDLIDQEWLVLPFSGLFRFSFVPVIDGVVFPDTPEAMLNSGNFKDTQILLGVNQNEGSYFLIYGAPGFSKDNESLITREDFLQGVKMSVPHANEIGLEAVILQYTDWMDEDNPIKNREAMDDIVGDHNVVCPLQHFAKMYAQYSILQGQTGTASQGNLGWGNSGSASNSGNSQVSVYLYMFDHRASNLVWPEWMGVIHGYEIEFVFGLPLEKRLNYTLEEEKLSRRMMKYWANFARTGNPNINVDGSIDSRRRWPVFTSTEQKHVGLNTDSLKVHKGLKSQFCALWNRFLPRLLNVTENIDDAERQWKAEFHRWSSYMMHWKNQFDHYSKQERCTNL

[7] = molecular target: Acetylcholinesterase (Electrophorus electricus) (UniProt O42275); assay: Inhibition of electric eel AChE using acetylthiocholine iodide as substrate at 10 uM preincubated with enzyme for 5 mins prior to substrate addition measured after 5 mins by Ellman's method relative to control
Acetylcholinesterase (Electrophorus electricus), sequence (O42275 24-633 limits assumed): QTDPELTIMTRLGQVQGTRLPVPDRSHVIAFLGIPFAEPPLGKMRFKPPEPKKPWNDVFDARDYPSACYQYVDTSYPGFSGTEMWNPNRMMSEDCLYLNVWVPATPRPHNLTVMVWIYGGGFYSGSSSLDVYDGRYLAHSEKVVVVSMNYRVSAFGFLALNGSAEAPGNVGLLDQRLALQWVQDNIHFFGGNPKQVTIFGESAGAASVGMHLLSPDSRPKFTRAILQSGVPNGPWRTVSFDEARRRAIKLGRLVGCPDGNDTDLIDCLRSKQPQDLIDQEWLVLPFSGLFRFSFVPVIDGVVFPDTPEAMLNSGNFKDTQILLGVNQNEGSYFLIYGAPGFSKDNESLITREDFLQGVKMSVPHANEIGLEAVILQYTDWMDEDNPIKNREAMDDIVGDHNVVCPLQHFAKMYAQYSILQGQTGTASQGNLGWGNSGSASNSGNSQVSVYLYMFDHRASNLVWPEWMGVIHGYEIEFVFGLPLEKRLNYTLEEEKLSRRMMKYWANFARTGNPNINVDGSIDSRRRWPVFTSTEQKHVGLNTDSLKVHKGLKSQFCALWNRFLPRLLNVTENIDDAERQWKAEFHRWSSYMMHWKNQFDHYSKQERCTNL

[8] = molecular target: T4, Acetylcholinesterase; assay: Non-competitive inhibition of electric eel AChE using acetylthiocholine iodide as substrate by Lineweaver-Burk plot analysis
[9] = molecular target: T2, Acetylcholinesterase; assay: Non-competitive inhibition of recombinant human AChE using acetylthiocholine iodide as substrate by Lineweaver-Burk plot analysis
[10] = molecular target: T2, Acetylcholinesterase; assay: Non-competitive inhibition of recombinant human AChE using acetylthiocholine iodide as substrate by Cornish-Bowden plot analysis
[11] = molecular target: T1, Histamine H3 receptor; assay: Displacement of [125I]Iodoproxyfan from human histamine H3 receptor stably expressed in CHOK1 cells after 60 mins; type: cell-based
[12] = molecular target: T1, Histamine H3 receptor; assay: Displacement of [125I]Iodoproxyfan from human histamine H3 receptor stably expressed in HEK293 cells after 60 mins; type: cell-based

SMILES | inhibition [1] [%] | Ki [2] [nM] | IC50 [5] [nM] | IC50 [6] [nM] | inhibition [7] [%] | Ki [11] [nM] | also measured
Cc1ccc2oc(-c3ccc(OCCCCCCN4CCCCCC4)cc3)cc(=O)c2c1 | 99.5 | 160 | 440 | 460 | 95.9 |  | IC50 [3]: 480 nM; Ki [4]: 281 nM; Ki [8]: 176 nM
Clc1ccc(CCCOCCCN2CCCCC2)cc1 | 55.7 |  |  |  | 3.04 |  | 
Cc1ccc2oc(-c3ccc(OCCCCCCN4CCCCC4)cc3)cc(=O)c2c1 | 99.6 | 228 | 760 | 500 | 95.6 |  | IC50 [3]: 360 nM; Ki [9]: 129 nM; inhibition [10]: Active
C(=C\c1ccccc1)/CN1CCN(CCCOCCCc2ccccc2)CC1 | 37.8 |  |  |  | 0 | 690 | 
c1ccc(CCCOCCCN2CCN(Cc3ccccc3)CC2)cc1 | 33.9 |  |  |  | 18.8 | > 1000 | 
CCc1ccc(OCCCCCCN2CCCCCC2)cc1 | 85.7 | 84.3 | 1900 |  | 30.8 |  | 
CCOc1ccccc1N1CCN(CCCOCCCc2ccccc2)CC1 | 46 |  |  |  | 3.36 | > 1000 | 
CC1CCCN(CCCCCCOc2ccc3c(c2)C(=O)CC(c2ccccc2)O3)C1 (centres undefined) | 90.3 | 523 | 1900 | 800 | 91.5 |  | 
Cc1ccc2oc(-c3ccc(OCCCCCCN4CCCC(C)C4)cc3)cc(=O)c2c1 (centres undefined) | 99.4 | 60 | 1090 | 800 | 94 |  | 
CCc1ccc(OCCCCCCN2CCC(C)CC2)cc1 | 75.1 | 181 | 3920 |  | 23.5 |  | 
O=C(c1ccccc1Cl)N1CCN(CCCOCC2CCC2)CC1 | 0 |  |  |  | 0 | > 1000 | 
O=C(c1ccc(OCCCN2CCN(C/C=C/c3ccccc3)CC2)cc1)C1CC1 | 38.4 |  |  |  | 8.85 | 83 | 
O=C(c1ccc(OCCCN2CCN(c3ccccc3)CC2)cc1)C1CC1 | 11.2 |  |  |  | 7.58 |  | Ki [12]: 111 nM
